The values that follow come from ChEMBL document CHEMBL4622852, “Design and synthesis of novel proline based factor XIa selective inhibitors as leads for potential new anticoagulants” (Bioorg Med Chem Lett, 2020).

Activity calls are given as the source filed them. The calls are words filed in the database; no cut-off is given here.

For one experiment, the target named is Coagulation factor X (Homo sapiens, UniProt P00742). As to the kind of experiment: Inhibition of factor 10a (unknown origin).
Chain of Coagulation factor X (P00742 41-179 limits assumed): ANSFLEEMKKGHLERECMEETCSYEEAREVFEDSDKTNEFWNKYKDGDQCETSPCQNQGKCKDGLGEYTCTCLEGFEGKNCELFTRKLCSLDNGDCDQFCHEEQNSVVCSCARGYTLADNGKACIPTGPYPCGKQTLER
Chain of Coagulation factor X (P00742 235-488 limits assumed): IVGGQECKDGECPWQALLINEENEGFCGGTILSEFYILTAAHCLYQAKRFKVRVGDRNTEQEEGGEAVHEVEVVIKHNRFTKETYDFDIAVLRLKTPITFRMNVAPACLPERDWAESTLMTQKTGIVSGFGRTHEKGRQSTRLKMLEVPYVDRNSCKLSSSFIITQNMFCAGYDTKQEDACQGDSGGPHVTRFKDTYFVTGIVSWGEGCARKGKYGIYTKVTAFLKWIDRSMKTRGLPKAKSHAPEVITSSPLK
A further experiment concerns the target Prothrombin (Homo sapiens, UniProt P00734). As to the kind of experiment: Inhibition of thrombin (unknown origin).
For a further experiment, the target named is Coagulation factor IX (Homo sapiens, UniProt P00740). As to the kind of experiment: Inhibition of factor 9a (unknown origin).
Chain of Coagulation factor IX (P00740 47-191 limits assumed): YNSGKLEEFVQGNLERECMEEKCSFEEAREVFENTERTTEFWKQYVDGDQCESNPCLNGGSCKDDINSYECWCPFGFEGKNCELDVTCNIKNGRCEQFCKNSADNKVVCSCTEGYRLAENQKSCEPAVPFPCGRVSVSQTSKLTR
Chain of Coagulation factor IX (P00740 227-461 limits assumed): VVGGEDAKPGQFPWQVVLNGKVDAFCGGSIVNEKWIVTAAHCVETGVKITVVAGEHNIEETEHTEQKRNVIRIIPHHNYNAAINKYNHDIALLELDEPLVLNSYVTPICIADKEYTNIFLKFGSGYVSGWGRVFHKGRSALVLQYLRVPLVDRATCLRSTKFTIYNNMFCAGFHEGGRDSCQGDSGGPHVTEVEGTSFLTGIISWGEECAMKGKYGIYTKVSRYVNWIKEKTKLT
For a further experiment, the target named is Coagulation factor XI (Homo sapiens, UniProt P03951). In words: Inhibition of factor 11a (unknown origin).
Chain of Coagulation factor XI (P03951 19-387 limits assumed): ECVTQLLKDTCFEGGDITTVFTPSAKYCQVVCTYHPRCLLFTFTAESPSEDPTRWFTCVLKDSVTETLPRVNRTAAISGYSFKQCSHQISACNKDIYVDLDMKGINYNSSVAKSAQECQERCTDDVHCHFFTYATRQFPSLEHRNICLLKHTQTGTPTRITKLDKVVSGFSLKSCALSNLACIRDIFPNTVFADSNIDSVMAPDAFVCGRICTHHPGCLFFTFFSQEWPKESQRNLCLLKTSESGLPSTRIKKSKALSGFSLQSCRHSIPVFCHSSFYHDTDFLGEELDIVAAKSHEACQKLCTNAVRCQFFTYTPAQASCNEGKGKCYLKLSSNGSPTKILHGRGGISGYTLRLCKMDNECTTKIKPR
Chain of Coagulation factor XI (P03951 388-625 limits assumed): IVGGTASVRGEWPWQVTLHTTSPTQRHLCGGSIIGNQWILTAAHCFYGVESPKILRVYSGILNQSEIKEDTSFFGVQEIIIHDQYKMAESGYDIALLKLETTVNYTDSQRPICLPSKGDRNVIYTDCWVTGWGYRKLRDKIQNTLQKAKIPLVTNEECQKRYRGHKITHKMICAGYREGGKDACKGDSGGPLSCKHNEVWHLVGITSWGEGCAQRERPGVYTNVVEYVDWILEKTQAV
Experiment [1] deals with T1, Coagulation factor VII (Homo sapiens) (UniProt P08709).
T1 sequence (whole entry): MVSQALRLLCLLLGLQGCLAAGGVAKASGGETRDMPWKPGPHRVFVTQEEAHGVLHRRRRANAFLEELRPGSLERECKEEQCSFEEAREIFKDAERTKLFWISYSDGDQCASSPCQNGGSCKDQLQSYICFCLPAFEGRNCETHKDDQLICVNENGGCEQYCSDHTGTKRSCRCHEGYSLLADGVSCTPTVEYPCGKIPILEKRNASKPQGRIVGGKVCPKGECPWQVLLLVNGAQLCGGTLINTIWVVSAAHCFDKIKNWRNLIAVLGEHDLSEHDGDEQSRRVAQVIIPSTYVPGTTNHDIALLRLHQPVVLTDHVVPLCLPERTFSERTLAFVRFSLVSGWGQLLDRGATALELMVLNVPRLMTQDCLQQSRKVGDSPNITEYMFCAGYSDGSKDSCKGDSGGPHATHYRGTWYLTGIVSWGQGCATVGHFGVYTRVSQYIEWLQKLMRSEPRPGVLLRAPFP
As to the kind of experiment: Inhibition of factor 7a (unknown origin).

In the case of `Nc1nccc2cc(CNC(=O)[C@@H]3CCCN3C(=O)[C@@H](CC3CCCCC3)NC3CCCCC3)ccc12`, the inhibition entry (on Coagulation factor X; at Coagulation factor IX; in experiment [1]) was “Active” in each case. In addition, the IC50 – broadly, the midpoint of a concentration-inhibition curve – worked out at 0.001 µM at Prothrombin and 0.16 µM against Coagulation factor XI.
